Earlier results in patent publication US6432966B1, “Antiviral combinations” (SmithKline Beecham Corporation, priority 1999, dated 2002).

Columns and labels:
HBV [1] = test system: HBV
HBV [2] = settings: in vitro
Hepatitis B virus = settings: oral, woodchucks

Row | SMILES | patients maintaining undetectable levels of virus (HBV [1]; through to the end of the second year) [%] | levels of viral replication in patients (HBV [1]; two year study) | anti-HBV activity (HBV [2]) | efficacy against Hepatitis B virus (Hepatitis B virus)
1 | Nc1ccn([C@@H]2CS[C@H](CO)O2)c(=O)n1 (relative stereo) [lamivudine, (2R,cis)-4-amino-1-(2-hydroxymethyl-1,3-oxathiolan-5-yl)-pyrimidin-2-one] | 52 | most patients showed substantially reduced levels of viral replication |  | 
2 | C=C1[C@H](CO)[C@@H](O)C[C@@H]1n1cnc2c(=O)[nH]c(N)nc21 [BMS-200475] |  |  | anti-HBV activity in vitro | effective against Hepatitis B virus in woodchucks
